Earlier results on four molecules are cited in US7220434B2, “Dual-release compositions of a cyclooxygenase-2 inhibitor” (Pharmacia Corporation (of Pfizer, Inc.), priority 2000, dated 2007).

SMILES strings stand for the structures.

The conditions of data set [1]: conventionally formulated for oral delivery.

As for `COc1ccc(-c2cc(C(F)F)nn2-c2ccc(S(N)(=O)=O)cc2)cc1F` [deracoxib], the solubility in water entry is on record as “low solubility in water”.

As for `CS(=O)(=O)c1ccc(C2=C(c3ccccc3)C(=O)OC2)cc1` [rofecoxib, 3-phenyl-4-[4-(methylsulfonyl)phenyl]-5H-furan-2-one], the solubility in water result is “low solubility in water”. Moreover, in data set [1], the half-life result is on record as “sufficient to provide therapeutic benefit over a 24-hour period”.

For the molecule `Cc1ccc(-c2cc(C(F)(F)F)nn2-c2ccc(S(N)(=O)=O)cc2)cc1` [celecoxib, 4-[5-(4-methylphenyl)-3-(trifluoromethyl)-1H-pyrazol-1-yl]benzenesulfonamide], the solubility in water entry is “low solubility in water”. Moreover, the “solubility in aqueous media” value (aqueous media) was “unusually insoluble”.

Consider `Cc1onc(-c2ccccc2)c1-c1ccc(S(N)(=O)=O)cc1` [valdecoxib, 4-[5-methyl-3-phenylisoxazol-4-yl]benzenesulfonamide], for which the solubility in water entry is listed as “low solubility in water”.
